Drawing on article doi:10.1101/2024.08.13.607785v1 (biorxiv, 2024), this text covers remaining activity for two molecules.

Where two headings read alike, the source gives them in different places.

Holding throughout (assay): biochemical
Design in all cases: species or system human cell line lysate

Experiment [1] concerns the target Ribosomal protein S6 kinase alpha-4 ; RPS6KA4 ; O75676 (Homo sapiens, UniProt O75676).
Experiment [2] deals with Serine/threonine-protein kinase RIO2 ; RIOK2 ; Q9BVS4 (Homo sapiens, UniProt Q9BVS4).
Experiment [3] concerns the target Bone morphogenetic protein receptor type-1A ; BMPR1A ; P36894 (Homo sapiens, UniProt P36894).
The target in experiment [4] is Serine/threonine-protein kinase 3 ; STK3 ; Q13188 (Homo sapiens, UniProt Q13188).
For experiment [5], the target named is Serine/threonine-protein kinase SIK2 ; SIK2 ; Q9H0K1 (Homo sapiens, UniProt Q9H0K1).
Experiment [6] has as its target Serine/threonine-protein kinase ULK2 ; ULK2 ; Q8IYT8 (Homo sapiens, UniProt Q8IYT8).
The target of experiment [7] is Dual specificity protein kinase CLK2 ; CLK2 ; P49760 (Homo sapiens, UniProt P49760).
The target in experiment [8] is 3-phosphoinositide-dependent protein kinase 1 ; PDPK1 ; O15530 (Homo sapiens, UniProt O15530).
In experiment [9] the target is Dual specificity protein kinase TTK ; TTK ; P33981 (Homo sapiens, UniProt P33981).
For experiment [10], the target named is Serine/threonine-protein kinase 16 ; STK16 ; O75716 (Homo sapiens, UniProt O75716).
Experiment [11] deals with Maternal embryonic leucine zipper kinase ; MELK ; Q14680 (Homo sapiens, UniProt Q14680).
Experiment [12] deals with Protein-tyrosine kinase 2-beta ; PTK2B ; Q14289 (Homo sapiens, UniProt Q14289).
In experiment [13] the target is Serine/threonine-protein kinase D1 ; PRKD1 ; Q15139 (Homo sapiens, UniProt Q15139).
Experiment [14] concerns the target Misshapen-like kinase 1 ; MINK1 ; Q8N4C8 (Homo sapiens, UniProt Q8N4C8).
The target in experiment [15] is Serine/threonine-protein kinase N2 ; PKN2 ; Q16513 (Homo sapiens, UniProt Q16513).
The target of experiment [16] is Isoform 4 of Serine/threonine-protein kinase Nek2 ; NEK2 ; P51955-4 (Homo sapiens, UniProt P51955).
The target in experiment [17] is Mitogen-activated protein kinase kinase kinase kinase 1 ; MAP4K1 ; Q92918 (Homo sapiens, UniProt Q92918).
Experiment [18] concerns the target Protein kinase C delta type ; PRKCD ; Q05655 (Homo sapiens, UniProt Q05655).
The target in experiment [19] is Isoform 4 of LIM domain kinase 1 ; LIMK1 ; P53667-4 (Homo sapiens, UniProt P53667).
In experiment [20] the target is Mitogen-activated protein kinase 15 ; MAPK15 ; Q8TD08 (Homo sapiens, UniProt Q8TD08).
For experiment [21], the target named is Dual specificity testis-specific protein kinase 1 ; TESK1 ; Q15569 (Homo sapiens, UniProt Q15569).
In experiment [22] the target is Serine/threonine-protein kinase TAO2 ; TAOK2 ; Q9UL54 (Homo sapiens, UniProt Q9UL54).
The target of experiment [23] is Protein kinase C iota type ; PRKCI ; P41743 (Homo sapiens, UniProt P41743).
Setting [24] is: read-out: BAY-1251152 (10 µM) / %Intensity relative to DMSO.
Where [25] appears, read: read-out: BAY-1143572 (10 µM) / %Intensity relative to DMSO.

Sequence of Serine/threonine-protein kinase RIO2 ; RIOK2 ; Q9BVS4 (Q9BVS4 whole entry, one chain of several): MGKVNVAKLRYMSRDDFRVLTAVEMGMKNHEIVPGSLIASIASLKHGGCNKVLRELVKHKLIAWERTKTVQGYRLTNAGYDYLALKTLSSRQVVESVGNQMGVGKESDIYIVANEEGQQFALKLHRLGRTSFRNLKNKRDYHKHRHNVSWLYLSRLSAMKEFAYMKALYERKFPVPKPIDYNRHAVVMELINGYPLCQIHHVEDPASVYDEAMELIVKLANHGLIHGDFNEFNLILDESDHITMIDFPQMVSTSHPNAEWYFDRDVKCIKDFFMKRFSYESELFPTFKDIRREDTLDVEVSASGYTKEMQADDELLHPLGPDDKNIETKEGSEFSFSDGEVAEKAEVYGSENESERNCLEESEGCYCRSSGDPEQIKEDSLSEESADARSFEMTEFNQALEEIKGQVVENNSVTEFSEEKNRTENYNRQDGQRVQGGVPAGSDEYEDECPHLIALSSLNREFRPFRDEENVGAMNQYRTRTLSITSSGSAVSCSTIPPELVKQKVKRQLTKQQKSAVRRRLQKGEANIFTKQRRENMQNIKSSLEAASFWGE
Sequence of Dual specificity testis-specific protein kinase 1 ; TESK1 ; Q15569 (Q15569 whole entry): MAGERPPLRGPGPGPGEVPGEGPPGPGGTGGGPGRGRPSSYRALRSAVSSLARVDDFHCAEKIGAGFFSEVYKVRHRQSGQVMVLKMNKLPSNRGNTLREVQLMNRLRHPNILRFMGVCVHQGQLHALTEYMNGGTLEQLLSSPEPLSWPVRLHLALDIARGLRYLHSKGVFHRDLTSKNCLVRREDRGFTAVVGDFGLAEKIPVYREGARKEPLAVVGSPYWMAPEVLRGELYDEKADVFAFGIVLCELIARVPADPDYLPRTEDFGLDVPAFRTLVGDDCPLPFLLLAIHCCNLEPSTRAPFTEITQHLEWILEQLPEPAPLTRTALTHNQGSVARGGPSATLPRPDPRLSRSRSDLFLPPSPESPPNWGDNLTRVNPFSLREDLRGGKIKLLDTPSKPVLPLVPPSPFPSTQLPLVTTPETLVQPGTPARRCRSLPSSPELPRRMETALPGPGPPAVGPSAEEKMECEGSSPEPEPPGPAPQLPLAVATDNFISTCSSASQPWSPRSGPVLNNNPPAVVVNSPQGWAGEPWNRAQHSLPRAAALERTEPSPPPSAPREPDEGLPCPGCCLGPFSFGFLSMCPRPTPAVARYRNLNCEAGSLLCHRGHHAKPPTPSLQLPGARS
Sequence of Maternal embryonic leucine zipper kinase ; MELK ; Q14680 (Q14680 whole entry): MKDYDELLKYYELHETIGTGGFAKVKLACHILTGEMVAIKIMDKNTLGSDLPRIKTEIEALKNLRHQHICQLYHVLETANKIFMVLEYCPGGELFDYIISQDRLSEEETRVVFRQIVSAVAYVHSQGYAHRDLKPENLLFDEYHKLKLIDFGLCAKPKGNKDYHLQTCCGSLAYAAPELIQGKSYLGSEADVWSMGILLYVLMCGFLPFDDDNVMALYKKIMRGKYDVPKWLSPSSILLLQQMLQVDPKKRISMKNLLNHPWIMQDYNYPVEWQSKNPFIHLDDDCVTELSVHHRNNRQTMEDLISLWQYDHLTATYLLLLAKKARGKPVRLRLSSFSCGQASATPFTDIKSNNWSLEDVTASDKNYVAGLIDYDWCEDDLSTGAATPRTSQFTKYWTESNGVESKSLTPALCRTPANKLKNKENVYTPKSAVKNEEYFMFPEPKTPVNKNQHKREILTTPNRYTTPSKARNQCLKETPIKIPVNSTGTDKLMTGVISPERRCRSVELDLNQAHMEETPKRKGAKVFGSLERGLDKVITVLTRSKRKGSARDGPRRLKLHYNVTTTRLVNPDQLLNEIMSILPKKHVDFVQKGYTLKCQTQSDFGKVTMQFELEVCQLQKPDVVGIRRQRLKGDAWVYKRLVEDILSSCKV
Sequence of Serine/threonine-protein kinase N2 ; PKN2 ; Q16513 (Q16513 whole entry, canonical isoform, one chain of several): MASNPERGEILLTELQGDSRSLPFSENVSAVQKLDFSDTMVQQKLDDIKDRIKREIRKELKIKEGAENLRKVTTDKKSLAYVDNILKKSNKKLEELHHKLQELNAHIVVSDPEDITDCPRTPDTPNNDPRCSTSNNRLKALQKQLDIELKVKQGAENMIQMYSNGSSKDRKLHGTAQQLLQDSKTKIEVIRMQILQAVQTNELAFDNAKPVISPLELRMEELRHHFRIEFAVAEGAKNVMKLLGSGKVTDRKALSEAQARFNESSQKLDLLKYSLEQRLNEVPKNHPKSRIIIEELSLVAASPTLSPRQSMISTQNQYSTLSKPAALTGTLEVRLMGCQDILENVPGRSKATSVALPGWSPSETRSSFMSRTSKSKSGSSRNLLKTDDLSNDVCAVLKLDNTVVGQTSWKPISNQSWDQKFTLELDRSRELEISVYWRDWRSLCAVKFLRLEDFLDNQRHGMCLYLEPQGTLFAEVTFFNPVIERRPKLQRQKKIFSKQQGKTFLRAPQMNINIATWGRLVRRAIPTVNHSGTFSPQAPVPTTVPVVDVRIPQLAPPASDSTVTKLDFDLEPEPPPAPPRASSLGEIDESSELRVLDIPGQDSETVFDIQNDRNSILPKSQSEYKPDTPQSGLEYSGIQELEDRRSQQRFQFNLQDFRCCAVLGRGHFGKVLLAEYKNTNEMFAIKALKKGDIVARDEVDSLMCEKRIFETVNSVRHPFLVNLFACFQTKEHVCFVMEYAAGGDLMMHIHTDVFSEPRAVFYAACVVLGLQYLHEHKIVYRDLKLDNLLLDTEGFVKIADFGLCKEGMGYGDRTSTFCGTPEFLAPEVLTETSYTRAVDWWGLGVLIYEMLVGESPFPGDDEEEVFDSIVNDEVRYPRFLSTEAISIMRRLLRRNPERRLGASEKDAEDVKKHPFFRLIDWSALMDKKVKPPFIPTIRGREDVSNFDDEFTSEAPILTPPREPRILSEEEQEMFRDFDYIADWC
Sequence of Serine/threonine-protein kinase SIK2 ; SIK2 ; Q9H0K1 (Q9H0K1 whole entry, one chain of several): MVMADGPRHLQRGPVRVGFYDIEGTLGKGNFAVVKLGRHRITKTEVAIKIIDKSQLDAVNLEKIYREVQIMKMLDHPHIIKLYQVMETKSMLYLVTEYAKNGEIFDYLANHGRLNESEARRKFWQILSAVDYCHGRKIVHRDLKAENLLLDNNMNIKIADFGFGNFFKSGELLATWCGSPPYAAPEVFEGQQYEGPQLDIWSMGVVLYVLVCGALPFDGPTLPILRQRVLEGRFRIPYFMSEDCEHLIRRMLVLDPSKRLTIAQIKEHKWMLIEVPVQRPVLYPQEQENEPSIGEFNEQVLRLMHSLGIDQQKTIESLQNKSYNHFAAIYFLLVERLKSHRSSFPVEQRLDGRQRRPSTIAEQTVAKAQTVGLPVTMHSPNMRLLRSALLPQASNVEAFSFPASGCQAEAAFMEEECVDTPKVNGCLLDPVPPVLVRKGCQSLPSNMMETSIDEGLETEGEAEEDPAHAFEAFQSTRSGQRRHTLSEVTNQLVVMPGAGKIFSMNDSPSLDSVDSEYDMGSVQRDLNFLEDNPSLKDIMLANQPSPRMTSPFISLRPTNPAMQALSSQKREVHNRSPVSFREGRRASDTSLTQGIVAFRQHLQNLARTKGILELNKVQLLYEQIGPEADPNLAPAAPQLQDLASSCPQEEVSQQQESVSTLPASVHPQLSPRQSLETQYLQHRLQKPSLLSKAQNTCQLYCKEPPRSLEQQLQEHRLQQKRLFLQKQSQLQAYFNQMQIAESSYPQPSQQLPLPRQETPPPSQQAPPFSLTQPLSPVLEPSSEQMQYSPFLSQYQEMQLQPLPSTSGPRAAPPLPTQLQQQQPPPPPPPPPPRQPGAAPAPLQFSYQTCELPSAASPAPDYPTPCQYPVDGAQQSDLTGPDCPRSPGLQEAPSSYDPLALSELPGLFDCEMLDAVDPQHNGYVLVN
Sequence of Protein kinase C delta type ; PRKCD ; Q05655 (Q05655 whole entry, the tested form may be a part, canonical isoform): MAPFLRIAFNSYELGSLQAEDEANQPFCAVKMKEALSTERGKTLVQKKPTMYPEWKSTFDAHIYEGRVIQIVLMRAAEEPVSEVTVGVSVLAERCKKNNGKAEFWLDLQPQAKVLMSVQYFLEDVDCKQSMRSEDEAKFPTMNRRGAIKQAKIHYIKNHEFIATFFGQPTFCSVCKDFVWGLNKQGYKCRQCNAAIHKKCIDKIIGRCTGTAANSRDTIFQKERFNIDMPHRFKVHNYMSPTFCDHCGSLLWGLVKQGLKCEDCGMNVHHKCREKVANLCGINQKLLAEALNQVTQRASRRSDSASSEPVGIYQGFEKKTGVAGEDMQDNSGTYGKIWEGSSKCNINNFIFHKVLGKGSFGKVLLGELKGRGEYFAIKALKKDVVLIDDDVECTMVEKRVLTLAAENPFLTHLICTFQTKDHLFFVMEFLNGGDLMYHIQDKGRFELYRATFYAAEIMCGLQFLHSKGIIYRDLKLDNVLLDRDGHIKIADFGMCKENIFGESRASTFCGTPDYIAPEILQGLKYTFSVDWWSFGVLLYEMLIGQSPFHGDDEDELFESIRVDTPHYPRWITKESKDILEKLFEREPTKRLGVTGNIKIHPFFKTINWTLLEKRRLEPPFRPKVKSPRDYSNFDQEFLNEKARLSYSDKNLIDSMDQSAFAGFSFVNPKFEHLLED
Sequence of Dual specificity protein kinase CLK2 ; CLK2 ; P49760 (P49760 whole entry): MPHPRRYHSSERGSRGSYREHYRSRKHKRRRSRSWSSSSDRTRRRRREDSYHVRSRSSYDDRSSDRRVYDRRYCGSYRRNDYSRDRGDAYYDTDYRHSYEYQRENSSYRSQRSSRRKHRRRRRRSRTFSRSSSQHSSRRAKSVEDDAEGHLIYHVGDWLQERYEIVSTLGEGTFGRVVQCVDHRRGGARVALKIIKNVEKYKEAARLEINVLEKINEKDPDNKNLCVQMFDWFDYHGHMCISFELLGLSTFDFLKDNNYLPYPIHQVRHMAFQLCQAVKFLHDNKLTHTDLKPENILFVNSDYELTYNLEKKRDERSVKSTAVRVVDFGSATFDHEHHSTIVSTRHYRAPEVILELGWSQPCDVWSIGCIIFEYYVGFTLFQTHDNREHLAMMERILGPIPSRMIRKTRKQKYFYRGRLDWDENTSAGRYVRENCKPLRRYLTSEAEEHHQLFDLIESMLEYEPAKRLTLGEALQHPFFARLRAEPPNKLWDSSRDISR

In the case of `COc1cc(F)ccc1-c1cc(Nc2cc(CS(C)(=N)=O)ccn2)ncc1F` (stereo not shown) [BAY-1251152], the remaining activity at 10 µM was 104% in experiment [1] (setting [24]); 111% in experiment [2] (setting [24]); 122% in experiment [3] (setting [24]); 91.9% in experiment [4] (setting [24]); 106% in experiment [5] (setting [24]); 104% in [6] (setting [24]). For the same molecule, the remaining activity at 10 µM worked out at 112% in experiment [7] (setting [24]); 104% in experiment [8] (setting [24]); 82.1% in experiment [9] (setting [24]); 61.5% in experiment [10] (setting [24]); 110% in experiment [11] (setting [24]); 176% in [12] (setting [24]). In addition, the remaining activity at 10 µM in [13] (setting [24]) stood at 154%; in experiment [14] (setting [24]), 54.1%; in experiment [15] (setting [24]) it was 222%; in experiment [16] (setting [24]), 114%; in experiment [17] (setting [24]), 71.6%; in [18] (setting [24]) it was 97.3%. The remaining activity at 10 µM was 106% in experiment [19] (setting [24]); 101% in [20] (setting [24]); 104% in experiment [21] (setting [24]); 56% in [22] (setting [24]); 99.3% in experiment [23] (setting [24]).
On to `COc1cc(F)ccc1-c1ncnc(Nc2cccc(C[S@](C)(=N)=O)c2)n1` [BAY-1143572], for which the remaining activity at 10 µM in experiment [1] (setting [25]) is 119%; in [2] (setting [25]) it was 123%; in experiment [3] (setting [25]) it was 164%; in experiment [4] (setting [25]), 103%; in experiment [5] (setting [25]), 102%; in experiment [6] (setting [25]) it was 92.9%. The remaining activity at 10 µM was found to be 139% in [7] (setting [25]); 114% in [8] (setting [25]); 86.7% in experiment [9] (setting [25]); 64.2% in experiment [10] (setting [25]); 116% in [11] (setting [25]); 217% in [12] (setting [25]). Besides, the remaining activity at 10 µM in experiment [13] (setting [25]) worked out at 155%; in [14] (setting [25]) it was 72.9%; in experiment [15] (setting [25]), 222%; in [16] (setting [25]), 115%; in [17] (setting [25]) it was 101%; in experiment [18] (setting [25]), 97.1%. The remaining activity at 10 µM in [19] (setting [25]) was 79%; in experiment [20] (setting [25]), 98.2%; in experiment [21] (setting [25]), 109%; in experiment [22] (setting [25]), 80.7%; in experiment [23] (setting [25]) it was 108%.
